From a melting point compilation (Tetko et al.; mined from patent text by program, amines drawn as free bases though some values may be those of a salt)

| melting point [°C] | Compound |
| --- | --- |
| 220 to 222 | Cc1ccccc1-c1nc2n(c1Br)-c1cccnc1Nc1ccccc1-2 |
| 120 | CCn1cc(C(=O)O)c(=O)c2cc(F)c(N3CCNC(c4ccn(S(=O)(=O)c5ccccc5)c4)C3)cc21 (centres undefined) |
| 195 to 196 | COC(=O)c1cc(-c2nc(COc3ccc(COc4nn(-c5ccccc5)cc4C=O)cc3OC)c(C)o2)ccc1C |
| 150 to 154 | CCCCc1nc(C(O)C(C)(C)C)c(C(N)=O)n1Cc1ccc(-c2ccccc2C(=O)O)cc1 (centres undefined) |
| 117 | Cc1cc2cccc([C@H](O)CO)c2nc1-c1ccccc1 |
| 94 | COc1cc(C(=O)NC=NC(=O)ON(c2ccc(C)c(NC(=O)c3ccc(OCc4ccccc4)cc3)c2)C(C)(C)C)cc(OC)c1OC |
| 33 | CCCCCc1ccc(C(=O)Oc2ccc(C#N)c(F)c2F)cc1 |
| 172 to 174 | COc1ccc(S(=O)(=O)C2(CCCC#Cc3ccc(Cl)cc3)SC(=O)NC2=O)cc1 (centres undefined) |
| 115 to 120 | COc1ccccc1NC(=O)Nc1nc(Nc2ccccc2-c2ccccc2)nc(N(CCC(=O)O)Cc2cccs2)n1 |
| 85 to 86 | CCOC(=O)c1ccc(CCCCN2C(=O)c3ccccc3C2=O)cc1 |
| 41 to 44 | CS(=O)(=O)SCCOC(=O)Cc1cccc(Nc2c(Cl)cccc2Cl)c1 |
| 167 | CCN(CC)CCC(=O)OCC1CC(c2ccc(-c3ccc(N4CC(Cn5ccnn5)OC4=O)cc3F)cn2)=NO1 (centres undefined) |
| 206 to 208 | COc1ccc2nc(NC(=O)C(CC3CCCC3)c3ccc(S(=O)(=O)N(C)Cc4ccccc4)cc3)sc2n1 (centres undefined) |
| 138 to 140 | CC(C)c1nn(-c2ccccc2)c(-c2ccc(F)cc2)c1CO |
| 97 to 98 | COc1ccc2c(c1)c(CO)nn2Cc1ccccc1 |
| 193 to 196 | O=[N+]([O-])c1ccc(O)c(C(=NO)c2ccccc2)c1 |
| 140 to 142 | Nc1cccc(-c2ccc(CCN3CCN(c4nccn4-c4ccccc4)CC3)cc2)n1 |

| melting point [°C] | Compound |
| --- | --- |
| 126 | CC(C)C(CN1CCC(Nc2nc3ccccc3n2-c2cccc3c2NCCC3)CC1)NCc1ccccc1 (centres undefined) |
| 114 to 115 | COc1ccc(C(=O)c2ccc(OCCc3nc(-c4ccccc4)oc3C)nc2)c(O)c1 |
| 312 to 315 | O=c1[nH]c(Nc2ccccc2)nc2c1ncn2CC(O)CO (centres undefined) |
| 104 to 106 | Nc1ncccc1C(=O)NCC1CCN(CC2COc3ccccc3O2)CC1 (centres undefined) |
| 88 to 89 | CCOC(=O)CCc1cn(Cc2cccnc2OCc2csc(-c3ccccc3)n2)nc1-c1ccccc1 |
| 180 to 181 | COc1ccc(S(=O)(=O)N2CCc3cccc(-c4cccc(F)c4)c32)cc1 |
| 154 to 156 | O=C(CCSCCOCCSCCC(=O)Nc1ccc(Nc2ccccc2)cc1)Nc1ccc(Nc2ccccc2)cc1 |
| 67 to 69 | Brc1cccc(OCc2ccc3ccccc3c2)n1 |
| 192 to 194 | c1cncc(CNC2=Nc3ccccc3Nc3ncccc32)c1 |
| 180 | Cn1cc(-c2cc(-c3cnc4ccccc4c3)ccn2)n(-c2ccc(C(C)(C)C#N)cc2)c1=O |
| 199 | O=c1[nH]c2cc(Cl)ccc2n1C1CCN(CCNC(c2ccc(F)cc2)c2ccc(F)cc2)CC1 |
| 126 to 129 | CCCCCCCC(=O)Oc1ccc(-c2nc(-c3ccc(N(C)C)cc3)c(C)[nH]2)cc1OC |
| 122 to 123 | NC(=O)c1cccc(OCc2cccc(O)c2)c1 |
| 199 to 200 | O=[N+]([O-])c1ccc2[nH]c(-c3ccccc3)cc2c1 |
| 118 | CCOC(=O)c1ccc(-c2ccc(OCCCI)c(-c3ccc4c(c3)C(C)(C)CCC4(C)C)c2)cc1 |
| 139 to 141 | NCC(c1cccc(OCc2ccccc2)c1)C1CCCCC1O (mixture of isomers) |
| 139 to 141 | Cc1c(Cc2cccc(C(F)(F)F)c2)oc2cccc(-c3cccc(C(=O)NCCO)c3)c12 |

Second part, the compound before the results:

| Compound | melting point [°C] |
| --- | --- |
| CC(C)(Cc1cccc2ccccc12)NC=O | 79 to 80 |
| CCOC(=O)c1cc(OCC)c(OCC)cc1N | 69 to 71 |
| O=C(C=CCN1CCOCC1)Nc1cc2c(Nc3ccc(F)c(Cl)c3)ncnc2cc1OC1CCCC1 | 143 |
| CNC(=O)[C@H](C)C[C@H](O)[C@H](CC1CCCCC1)NC(=O)[C@H](Cc1cscn1)NC(=O)OC(C)(C)C | 158 to 160 |
| COc1ccc(CCc2ccc(C(F)(F)F)cc2)cc1 | 80 |
| O=C(O)[C@H]1C[C@H](F)CN1 | 258 to 260 |
| Cc1c(C(=O)O)cnn1-c1nc(-c2cccc(Cl)c2)cs1 | 258 |
| CN(C)S(=O)(=O)c1ccccc1-c1ccc2c(c1)S(=O)(=O)NC(C1CCCCC1)N2 (centres undefined) | 290 to 300 |
| CCCCNC(=N)c1ccc2[nH]c(=O)[nH]c2c1 | 168 |
| CNC(=O)C1=CC(CF)(CF)Oc2ccc(C(F)(F)C(F)(F)F)cc21 | 127 to 128 |
| CCOC(=O)/C(=N\OC1(C)CCCC1)c1csc(N)n1 | 94 to 95 |
| COc1ccc(N2CC(CN3CCC(O)(c4ccc(Cl)cc4)CC3)OC2=O)cc1 (centres undefined) | 143 to 144 |
| NC(=O)c1ccc(OCCCCl)cc1 | 142 to 143 |
| C=CCNc1nc(NC(C)C)nc2ccc([N+](=O)[O-])cc12 | 150 to 151 |
| O=Cc1cn(-c2c(Cl)cc(C(F)(F)F)cc2Cl)c2ccccc12 | 167 to 169 |
| N#Cc1cnc2c(oc3ccccc32)c1Nc1ccc(Cl)cc1F | 259 to 261 |
| CC(=O)c1ccc2cc(O)ccc2c1O | 195 to 200 |
| CCOP(=O)(COCC(CO)On1cnc2c(=O)[nH]c(N)nc21)OCC (centres undefined) | 238 to 240 |
| Nn1cc(F)c(=O)[nH]c1=O | 196 to 199 |
| CC(C)(C)S(=O)(=O)C(=[N+]=[N-])S(=O)(=O)C(C)(C)C | 121 to 122 |
| CC(CCC(=O)NN1CCN(C)CC1)C1CC=C2C3=C(CCC21C)C1(C)CCC(O)C(C)(C)C1CC3 (centres undefined) | 189 to 191 |
| Cc1c(C#N)ncn1-c1cccc(Cl)c1 | 117 to 118 |

| Compound | melting point [°C] |
| --- | --- |
| CC(C(=O)O)c1ccc(N=c2sccn2C)cc1 (centres undefined) | 130 to 132 |
| O=C(OCC1CCCC1)c1ncn2c1[C@@H]1CCCN1C(=O)c1c(Cl)cccc1-2 | 112 to 114 |
| CN1CCN(CCc2nc3cc(Br)c4ccccc4c3n2C)CC1 | 151 to 157 |
| C=CCN(CC=C)c1nc(NC(=O)c2c(Cl)cccc2Cl)n2oc(=O)nc2n1 | 133 to 135 |
| CS(=O)(=O)Oc1ccccc1S(=O)(=O)Cl | 94 to 95 |
| Cc1c(O)ccc2c1CCCC2=O | 195 to 197 |
| CCc1cc(NC(=O)N2CCN(c3cc(N4CCCC4)nc(N4CCCC4)n3)CC2)c(OC)nc1C | 162 to 166 |
| CC(C)(C)OC(=O)N1CCC(n2c(=O)[nH]c3ccccc32)CC1 | 161 to 163 |
| Cc1cc(C=O)ccc1-c1ccc(O)cc1 | 94 to 96 |
| CC(=O)Oc1cccc(C(=O)N[C@H]2COC(C)(C)OC[C@@H]2OS(C)(=O)=O)c1C | 127 to 128 |
| COc1ccc(C(=O)CCC(=O)O)c2c1OC(C)(C)C2 | 125 to 126 |
| COc1ccc(NC=C(C#N)C(=O)Nc2cc(OC)c(Cl)cc2Cl)cc1F | 275 to 276 |
| COc1ccc(SC)c2c1CC(=O)CC2 | 88 to 90 |
| CCN1C(=O)CCCc2cc(Nc3ncc(Cl)c(Nc4cc(Cl)ccc4OC)n3)c(OC)cc21 | 194 to 196 |
| CN1CCN(c2nc3c(c(NCCO)n2)SCCC3)CC1 | 162 to 164 |
| CC(C)(C)OC(=O)N1CCN(c2ccc(OCc3ccccc3)cn2)CC1 | 93 to 94 |
| CCc1nc2c(N)nc3ccccc3c2n1CC1(O)CCCC1 | 210 |
| COC(=O)c1c(Br)c(Br)c(C(=O)OC)c(Br)c1Br | 207 to 210 |
| CN1CCSc2c(C(=O)NC3CN4CCC3CC4)cc(Cl)cc21 (centres undefined) | 195 to 196 |
| COc1cn(-c2cc3c(cc2F)OC(F)(F)O3)nc(-c2ccnn2-c2ccccc2)c1=O | 200 to 202 |
| Oc1cc(-c2ccc(F)cc2)nc2ccsc12 | 316 to 318 |
| O=[N+]([O-])c1cc([N+](=O)[O-])c(Nc2cccc3c2OC(F)(F)O3)c(C(F)(F)F)c1 | 144 to 146 |

| Compound | melting point [°C] |
| --- | --- |
| CC(C)(C(=O)c1ccc(OCC(=O)O)cc1)N1CCN(c2ccncc2)CC1 | 278 to 279 |
| COC(=O)c1nc(-c2cc(N)c(Cl)cc2F)cc(N)c1Cl | 99 to 101 |
| COc1cc2ncc(C#N)c(Nc3ccccc3C)c2cc1OC | 137 to 141 |
| COc1cccc(-c2cc3c(n2-c2ccc(O)c(C(=O)O)c2)CCCC3)c1 | 175 to 177 |
| CC#CCOc1cc(Oc2c(F)cc(F)cc2F)ncn1 | 60.3 |
| Cc1cc(CCCCCCCOc2ccc(C(=O)N(C)C)cc2)on1 | 58 to 59 |
| CCOC(=O)c1cnoc1-c1cc(Cl)cc(Cl)c1 | 50 to 51 |
| Cc1oc2cc(CO)ccc2c1C | 78 to 79 |
| COc1ccc(-c2c(CO)[nH]c3cc(OC)c(OC)cc23)cc1 | 169 to 170 |
| CC(C)(C)C1=CC(=Nc2cc(C(=O)O)ccc2O)C=C(C(C)(C)C)C1=O | 275 to 276 |
| Cc1cccc2c1C(=O)N(C)Cc1c(I)ncn1-2 | 106 to 108 |
| CC(C)n1c(=O)sc2cc([N+](=O)[O-])ccc21 | 138 to 142 |
| CC(C)(N)c1cc(Cl)c(Cl)c(Cl)c1 | 56 to 59 |
| COc1ccc(C2c3c(C)c(N4CCC(c5ccc(OC)c(OC)c5)CC4)c(C)c(C)c3OC2(C)C)cc1 (centres undefined) | 154 to 156 |
| COc1cccc(S(=O)(=O)NC(C)(C)C)c1 | 100 |
| C[C@H]1C=CC2=C[C@@H](O)C[C@H](OC(=O)CC(C)(C)C)[C@@H]2[C@H]1CC[C@@H]1C[C@@H](O)CC(=O)O1 | 155 |
| Nc1c(-c2csc(-c3ccncc3)n2)c(=O)[nH]c2ccc(N3CCCCC3)cc12 | 199 to 202 |
| C=CCN1CCN(c2ncc3c(=O)c(C(=O)OCC)cn(CC)c3n2)CC1 | 131 |
| O=C1N=NC(=O)c2c1[nH]c1cc(Cl)cc(Cl)c21 | > 300 |
| O=C1N(CC2COCCO2)c2ccccc2C12COc1cc3c(cc12)OCCO3 (centres undefined) | 198 to 199 |
| COc1ccc(C(=O)O)c(N)c1OC | 183 to 184 |
